Measurements published in PMC11273431, “Isolation, Characterization, and Functional Properties of Antioxidant Peptides from Mulberry Leaf Enzymatic Hydrolysates” (Antioxidants, 2024).

Key:
Assay type in all cases: cell-based
HepG2 cells [1] = assay: Cell viability, CCK-8; conditions: 160 μM H2O2, 24 h
Procedure: HepG2 cells were cultured in a complete medium (90% DMEM + 10% FBS + 100 units/mL penicillin and 100 μg/mL streptomycin) at 37 °C, 5% CO2, and 90% relative humidity. The Cell Counting Kit-8 (CCK-8) Assay Kit was used to detect the effect of H2O2 and peptides on cell viability. HepG2 cells (1 × 10^5 cells/mL) were pre-seeded in a 96-well culture plate overnight and then treated with H2O2 and peptides at 37 °C for 24 h. Cell viability was assessed with the CCK-8 kit (Item No. BS350C) according to the protocol supplied by the manufacturer.

HepG2 cells [2] = assay: Apoptosis, Annexin V-FITC/PI flow cytometry; conditions: 5–10 μg/mL pretreatment 6 h, then H2O2 160 μM 24 h
Procedure: HepG2 cells were treated as in Section 2.10. After that, cells were collected, rinsed twice with PBS, and then resuspended in Apoptosis Detection Staining solution (containing 2 μL of Annexin V-FITC dye, 5 μL of PI dye, and 100 μL of Binding buffer).
After 15 min of dark incubation at room temperature, cells were analyzed for their apoptotic status (Ex = 488 nm, FL1 EM = 515 nm, FL2 EM = 560 nm) using the BD Fortessa flow cytometer (Becton Dickinson, Franklin Lakes, NJ, USA), and the data were analyzed with Flowjo software 10.0.

SOD = SOD activity in HepG2 cells; conditions: 5–10 μg/mL pretreatment 6 h, then H2O2 160 μM 24 h; p < 0.01
Procedure: (§1) First, HepG2 cells (1 × 10^5 cells/mL) in a volume of 2 mL were seeded in a 6-well culture plate and incubated at 37 °C for 24 h. Experimental grouping and treatments were the same as in Section 2.9. Next, cells were collected, and cell lysis was performed using RIPA cell lysis solution. The protein concentration in cell lysates was determined by the BCA protein assay kit. SOD (Item No. A001-3-2) and CAT (Item No. A007-1-1) activity assays were carried out according to the instructions provided with the corresponding assay kits.

HepG2 cells [3] = assay: Hoechst 33258 staining, chromatin damage; conditions: 5–10 μg/mL pretreatment 6 h, then H2O2 160 μM 24 h; fluorescence microscopy
Procedure: (§2) HepG2 cells were treated as in Section 2.10. Hoechst 33258 (Item No. C0021) and JC-1 (Item No. M8650) staining was performed according to the instructions provided in the staining kit.
Hoechst 33258 staining was directly observed using a fluorescence microscope.

CAT = CAT activity in HepG2 cells; conditions: 5–10 μg/mL pretreatment 6 h, then H2O2 160 μM 24 h; p < 0.01
Procedure: as §1

HepG2 cells [4] = assay: JC-1 staining, mitochondrial membrane potential; conditions: 5–10 μg/mL pretreatment 6 h, then H2O2 160 μM 24 h; for JC-1 green fluorescence: fluorescence microscopy; for JC-1 red/green fluorescence ratio: microplate reader, versus H2O2 damage group
Procedure: as §2
After JC-1 staining, the samples were examined under a fluorescence microscope. […] The red/green fluorescence ratio can be considered a direct indicator of the state of mitochondrial polarization.

HepG2 cells [5] = assay: Protective effect against H2O2-induced oxidative damage, CCK-8; conditions: peptide 100 μg/mL pretreatment 6 h, then H2O2 160 μM 24 h
Procedure: We first established a H2O2-induced oxidative damage model in HepG2 cells. HepG2 cells (1 × 10^5 cells/mL) in a volume of 100 μL were seeded in a 96-well culture plate and incubated at 37 °C for 24 h. The control group and damage group received 100 μL of DMEM, the positive control group received 100 μL of 100 μg/mL Trolox, and the experimental group received 100 μL of DMEM containing different concentrations of peptides.
After culturing for another 6 h, the experimental and damage groups were exposed to H2O2 (160 μM) for 24 h, while the control group received an equal volume of DMEM. Finally, cell viability was measured following the procedures in Section 2.8.

ROS in HepG2 cells = assay: ROS levels, DCFH-DA fluorescence; conditions: 5–10 μg/mL pretreatment 6 h, then H2O2 160 μM 24 h; p < 0.01
Procedure: HepG2 cells were treated as in Section 2.10. After that, the supernatant was discarded, and cells were gently washed twice with PBS. Subsequently, the cells were incubated with DMEM containing 10 μM DCFH2-DA at 37 °C for 20 min. After the incubation, the cells were carefully washed twice with PBS, and then 1 mL of DMEM was added, after which the cells were observed under a fluorescence microscope.
The contents of ROS were indicated by DCF fluorescence and quantified using excitation and emission filters of 488 and 525 nm, respectively. The ROS levels were expressed as a percentage of the blank control values.

Row | Molecule | Cell survival rate (HepG2 cells [1]) [%] | Apoptosis rate (HepG2 cells [2]) | SOD activity (SOD) | Hoechst 33258 nuclear fluorescence (chromatin damage) (HepG2 cells [3]) | CAT activity (CAT) | JC-1 green fluorescence (HepG2 cells [4]) | JC-1 red/green fluorescence ratio (HepG2 cells [4]) | Mitigating effect on H2O2-induced oxidative damage (cell survival rate) (HepG2 cells [5]) | Cellular DCF fluorescence intensity (ROS) (ROS in HepG2 cells)
1 | OO [Peptide H2O2, hydrogen peroxide] | ~50 |  |  |  |  |  |  |  | 
2 | EGDAGAQGPPGPAGPAGER [Peptide P6] |  | significantly reduced the apoptosis rate | significant increase | reduced blue fluorescence and fewer bright spots | significant increase | reduced green fluorescence | effectively alleviated | significantly better than those of the other peptides | significantly reduced
3 | RPGPSPGVGAPGK [Peptide P7] |  | significantly reduced the apoptosis rate | significant increase | reduced blue fluorescence and fewer bright spots | significant increase | reduced green fluorescence | effectively alleviated | significantly better than those of the other peptides | significantly reduced
